Assay results reported in article PMC9645344, “Serotonin-releasing agents with reduced off-target effects” (Molecular Psychiatry, 2022).

Tests used:
[1] = system: extracellular 5-HT and DA in the NAc; test: In vivo microdialysis in the NAc of freely moving mice
Protocol: (§1) All in vivo experiments were performed in adult mice (>6 weeks old). For the photometry and microdialysis experiments, which were carried out in Florida, male C57BL/6J mice from The Jackson Laboratory (Bar Harbor, ME, USA) were group-housed in polycarbonate cages (GM500, Tecniplast, Buguggiate, Italy) with lights on from 7 a.m. to 7 p.m. Food and water were provided ad libitum. Photometry and microdialysis experiments were performed in accordance with a protocol approved by the Institutional Animal Care and Use Committee at Florida Atlantic University. For the behavioral experiments, which were carried out in Vienna, C57BL/6N mice from Charles River (Sulzfeld, Germany) were group-housed in polycarbonate cages with lights on from 7 a.m. to 7 p.m. Food and water were provided ad libitum. Behavioral experiments were performed in accordance with a protocol approved by the Austrian national ethical committee on animal care and use (Bundesministerium für Wissenschaft und Forschung: BMWFW-66.009/0016-WF/V/3b/2015). All animal procedures were conducted in agreement with the ARRIVE guidelines and the U.K. Animal (Scientific Procedures) Act, 1986, and associated guidelines, EU Directive 2010/63/EU for animal experiments. Mice were given at least 1 week to acclimate before being used in any experiments.
Mice were anesthetized with isoflurane (5% induction, 2% maintenance) and placed into a stereotaxic frame (Kopf Instruments, Tujunga, CA, USA) oriented in the flat skull position. Ophthalmic ointment was applied to prevent drying of the eyes. Ketoprofen (10 mg kg^−1) was administered subcutaneously (s.c.), whereas bupivacaine and lidocaine were administered locally (s.c.; 100 µl of sterile saline containing 0.05% bupivacaine and 0.2% lidocaine) to the surgical site atop the head. A midline incision was made through the skin on the dorsal surface of the head to expose the skull. Fascia was removed, coordinates for the NAc were determined relative to bregma: anterior/posterior = 1.54 mm; medial/lateral = 0.7 mm; dorsal/ventral = −4.1 mm. A 1 mm burr hole was drilled through the skull. […]
Microdialysis was performed based on a previous publication. […] Dialysate samples were collected on ice and stored at −80 °C until they were analyzed using high-performance liquid chromatography with electrochemical detection. Drug-induced changes in extracellular DA and 5-HT were expressed as fold change compared to basal monoamine levels obtained during the first three pretreatment samples.

5-HT2B receptor = 5-HT2B receptor (Homo sapiens, UniProt P41595); design: method as in PMID 30610839; conditions: concentrations as high as 7 µM; cited from earlier work
Chain of 5-HT2B receptor (P41595 whole entry): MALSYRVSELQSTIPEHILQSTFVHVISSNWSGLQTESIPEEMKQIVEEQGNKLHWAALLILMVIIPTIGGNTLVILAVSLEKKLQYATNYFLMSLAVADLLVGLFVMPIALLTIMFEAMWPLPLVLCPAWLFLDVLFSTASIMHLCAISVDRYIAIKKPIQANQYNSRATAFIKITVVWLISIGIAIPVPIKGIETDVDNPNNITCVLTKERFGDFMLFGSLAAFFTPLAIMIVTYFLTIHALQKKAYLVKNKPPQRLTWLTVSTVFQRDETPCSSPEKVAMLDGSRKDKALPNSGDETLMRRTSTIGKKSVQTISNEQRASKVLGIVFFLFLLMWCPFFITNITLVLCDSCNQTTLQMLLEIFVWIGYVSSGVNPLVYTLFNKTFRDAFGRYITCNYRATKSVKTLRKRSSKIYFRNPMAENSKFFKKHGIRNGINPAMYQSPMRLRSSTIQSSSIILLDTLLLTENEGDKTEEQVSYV

[2] = system: extracellular DA in the NAc; test: Fiber photometry with GRABDA sensor in the NAc; format: in vivo, mice
Protocol: All in vivo experiments were performed in adult mice (>6 weeks old). For the photometry and microdialysis experiments, which were carried out in Florida, male C57BL/6J mice from The Jackson Laboratory (Bar Harbor, ME, USA) were group-housed in polycarbonate cages (GM500, Tecniplast, Buguggiate, Italy) with lights on from 7 a.m. to 7 p.m. Food and water were provided ad libitum. Photometry and microdialysis experiments were performed in accordance with a protocol approved by the Institutional Animal Care and Use Committee at Florida Atlantic University. […]
Mice were anesthetized with isoflurane (5% induction, 2% maintenance) and placed into a stereotaxic frame (Kopf Instruments, Tujunga, CA, USA) oriented in the flat skull position. […] Fascia was removed, coordinates for the NAc were determined relative to bregma: anterior/posterior = 1.54 mm; medial/lateral = 0.7 mm; dorsal/ventral = −4.1 mm. […]
To monitor light emitted from the G-protein coupled receptor-activation-based 5-HT (GRAB5-HT) and DA (GRABDA) sensors, fiber photometry was performed as described. […] Emitted, band-pass filtered light (500–550 nm, FMC6, Doric Lenses, Quebec,QC, Canada) was detected with a photodetector (Newport Femtowatt silicone PIN; New Focus, San Jose, CA, USA). Data were recorded using a RZ5P lock-in amplifier (Tucker-Davis Technologies, Alachua, FL, USA) controlled with Synapse software. […]

[3] = system: extracellular 5-HT in the NAc; test: Fiber photometry with GRAB5-HT sensor in the NAc of freely moving mice; format: in vivo; conditions: for relative GRAB5-HT fluorescence at peak versus saline: t = 700-900 s post injection, drug alone, D-FEN 10, S-4-MC 5, S-4-TFMMC 10 mg kg-1 intraperitoneal
Protocol: as §1
Mice were anesthetized with isoflurane (5% induction, 2% maintenance) and placed into a stereotaxic frame (Kopf Instruments, Tujunga, CA, USA) oriented in the flat skull position. Ophthalmic ointment was applied to prevent drying of the eyes. Ketoprofen (10 mg kg^−1) was administered subcutaneously (s.c.), whereas bupivacaine and lidocaine were administered locally (s.c.; 100 µl of sterile saline containing 0.05% bupivacaine and 0.2% lidocaine) to the surgical site atop the head. A midline incision was made through the skin on the dorsal surface of the head to expose the skull. Fascia was removed, coordinates for the NAc were determined relative to bregma: anterior/posterior = 1.54 mm; medial/lateral = 0.7 mm; dorsal/ventral = −4.1 mm. A 1 mm burr hole was drilled through the skull. […] For the mice used for fiber photometry, 4*10^12 genome copies of AAV9-hSyn-5-HT2h or 10^10 genome copies of AAV-hSyn-DA2m were delivered into the NAc at an infusion rate of 100 nl min^−1 (total volume of 1 µl) using a 34-gauge needle attached to a 10 µl Nanofil microsyringe (Hamilton, Reno, NV, USA), as previously described. Following injection of the virus, an optical fiber was lowered through the burr hole and secured with glass ionomer cement. Three 1.6 mm screws (00-96X1/16 39052, Plastics One Inc., Roanoke, VA, USA) were affixed to the skull to support a cement stage that was created to secure the implanted guide cannulae or optical fiber. Mice were singly housed following surgery and allowed 6 days of recovery for the microdialysis experiments or 21 days for the photometry experiments. Food and water were available ad libitum.
To monitor light emitted from the G-protein coupled receptor-activation-based 5-HT (GRAB5-HT) and DA (GRABDA) sensors, fiber photometry was performed as described. Briefly, a light emitting diode (465 nm) (CLED_465, Doric Lenses, Quebec, QC, Canada), reflected through a dichroic mirror, was coupled to an optical fiber (200 µm core/225 cladding diameter; Thorlabs, Newton, NJ, USA) that was glued to a metal ferrule (Doric Lenses, Quebec, QC, Canada) and implanted into the NAc as described above. Emitted, band-pass filtered light (500–550 nm, FMC6, Doric Lenses, Quebec,QC, Canada) was detected with a photodetector (Newport Femtowatt silicone PIN; New Focus, San Jose, CA, USA). Data were recorded using a RZ5P lock-in amplifier (Tucker-Davis Technologies, Alachua, FL, USA) controlled with Synapse software. Sinusoidal excitation was delivered at 210 Hz by an LED driver Doric Lenses, LEDD_4) at low power mode. A demodulated signal was low-pass filtered at 6 Hz and digitized at 1017 Hz. […]

[4] = 5 mg kg-1 with or without fluoxetine 10 mg kg-1, repeated measures two-way ANOVA

Row | Compound | dialysate 5-HT versus baseline ([1]; 5 mg kg-1 intraperitoneal, NAc) | effect of drug treatment (alone versus plus fluoxetine) on dialysate 5-HT [1, 4] | effect of drug treatment (alone versus plus fluoxetine) on dialysate DA [1, 4] | binding to the 5-HT2B receptor (5-HT2B receptor) | basal DA levels in the NAc (GRABDA fluorescence) ([2]; 5 mg kg-1 intraperitoneal) | extracellular 5-HT in the NAc (GRAB5-HT fluorescence) ([3]; 5 mg kg-1 intraperitoneal) | 5-HT sensor response on day 1 versus day 2 ([3]; 5 mg kg-1 intraperitoneal, two doses 24 h apart) | extracellular 5-HT in the NAc (GRAB5-HT fluorescence) with co-administered fluoxetine ([3]; 5 mg kg-1 plus fluoxetine 10 mg kg-1 intraperitoneal) | relative GRAB5-HT fluorescence at peak versus saline [3] | dialysate 5-HT with co-administered fluoxetine ([1]; 10 mg kg-1 intraperitoneal plus fluoxetine 10 mg kg-1) | basal DA levels in the NAc (GRABDA fluorescence) ([2]; 10 mg kg-1 intraperitoneal) | extracellular 5-HT in the NAc (GRAB5-HT fluorescence) ([3]; 10 mg kg-1 intraperitoneal) | extracellular 5-HT in the NAc (GRAB5-HT fluorescence) with co-administered fluoxetine ([3]; 10 mg kg-1 plus fluoxetine 10 mg kg-1 intraperitoneal)
1 | Cc1ccc(C(=O)[C@H](C)N)cc1 [S-4-MC, 4-methylcathinone] | significantly elevated 5-HT in the dialysate | drug-treatment significantly affected 5-HT in the dialysate | but not DA | no binding | neither S-4-MC, nor S-4-TFMMC significantly elevated the basal DA levels | elevated extracellular 5-HT in the NAc in a time-dependent manner | no significant difference | this effect could be prevented by fluoxetine | Significant effects | – | – | – | –
2 | CN[C@@H](C)C(=O)c1ccc(C(F)(F)F)cc1 [S-4-TFMMC, 4-trifluoromethyl-N-methylcathinone] | – | – | – | – | – | – | – | – | Significant effects | fluoxetine markedly blunted the amount of dialysate 5-HT | neither S-4-MC, nor S-4-TFMMC significantly elevated the basal DA levels | elevated extracellular 5-HT in the NAc in a time-dependent manner | this effect could be prevented by fluoxetine
